This is an account of results in patent US20120108431A1, “PLANT GROWTH REGULATOR ADDITIVE” (TAMINCO, NAAMLOZE VENNOOTSCHAP, priority 2009, published 2012).

Common to all, as to type: in vivo
The subject of assay [1] is Navy bean cv Primel. Kind of assay: Navy bean Trial 2, pot trial, foliar spray at V2-V3. Conditions: for Final Seed Yield at Harvest (g per pot): one plant per pot; for Rooting (0-9) + 28 Days: score 0-9, 28 days after spraying.
Assay [2] relates to Soybean. The assay is described as follows: Soybean Trial 1, pot trial, foliar spray at V2-V3. The following applies: for Final Seed Yield at Harvest (g per pot): one plant per pot; for Rooting (0-9) + 28 Days: score 0-9, 28 days after spraying.
Assay [3] relates to Winter wheat cv Limerick. Kind of assay: Winter wheat Trial 3, pot trial, sprayed at GS23. Conditions: for Total No of Shoots/Plant at GS33 / Total No of “Large” Shoots/Plant at GS33 / Rooting (0-9) + 28 Days / Final Seed Yield + % / Rooting + % / Total No of Shoots/Plant + % / Total No of “Large” Shoots/Plant + %: winter wheat pots; for Rooting (0-9) + 28 Days: score 0-9, 28 days after spraying; for Final Seed Yield + % / Rooting + % / Total No of Shoots/Plant + % / Total No of “Large” Shoots/Plant + %: increase over the line given as 0 (untreated or growth regulator alone); for Final Seed Yield at Harvest (g per pot): winter wheat, eight plants per pot. The protocol:
The applied concentration of chemical can vary widely depending on the water volume applied to plants as well as other factors such as plant age and size, and plant sensitivity to the product. […] The rate of other components such as spreaders and stickers can be 50-200 ml per ha. C. […] Sprayed: 10 June, at GS23 (early-mid tillering). Plants were scored/assessed at GS33 on 12 July, with other measurements at crop maturity.

[4] abbreviates: navy bean, increase over the line given as 0 (untreated or growth regulator alone).
[5] abbreviates: soybean, increase over the line given as 0 (untreated or growth regulator alone).

Turning to `CC(=O)Nc1ccc(O)cc1` [AC, N-(4-hydroxypheyl)acetamide], in assay [1] (navy bean), the “No of Large Pod Bearing Branches/Plant at Harvest” value is 1.0, the “Final Seed Yield at Harvest (g per pot)” value worked out at 52.4 g per pot, the “Plant Biomass Score (0-9) at Harvest” value came to 5.2 and the “Rooting (0-9) + 28 Days” value is listed as 7.0. For the same compound, in assay [1] (setting [4]), the “Final Seed Yield + %” value was 8%, the “No of Large Pod Bearing Branches/Plant + %” value was 0%, the “Plant Biomass Score + %” value is on record as 0% and the “Rooting + %” value is listed as 0%. For the same compound, in assay [2] (soybean), the “No of Large Pod Bearing Branches/Plant at Harvest” value is 1.0, the “Final Seed Yield at Harvest (g per pot)” value is listed as 34.0 g per pot, the “Plant Biomass Score (0-9) at Harvest” value is 5.2 and the “Rooting (0-9) + 28 Days” value is reported as 4.2. Further, in assay [2] (setting [5]), the “Final Seed Yield + %” value is on record as 2%, the “No of Large Pod Bearing Branches/Plant + %” value is 0%, the “Plant Biomass Score + %” value was 0% and the “Rooting + %” value stood at 0%. In addition, in assay [3], the “Total No of Shoots/Plant at GS33” value is recorded as 3.0, the “Total No of “Large” Shoots/Plant at GS33” value amounted to 2.0, the “Rooting (0-9) + 28 Days” value came to 5.4 and the “Final Seed Yield + %” value worked out at 0%. In assay [3], the “Rooting + %” value turned out to be 0%, the “Total No of Shoots/Plant + %” value was determined as 0%, the “Total No of “Large” Shoots/Plant + %” value is recorded as 0% and the “Final Seed Yield at Harvest (g per pot)” value is listed as 33.9 g per pot.
As to `Nc1ccccc1C(=O)O` [AN, anthranilic acid], in assay [1] (in vivo), the “Final Seed Yield + %” value came out at 7% and the “Rooting + %” value was 3%. Further, in assay [1] (navy bean), the “No of Large Pod Bearing Branches/Plant at Harvest” value worked out at 1.0, the “Final Seed Yield at Harvest (g per pot)” value was 52.0 g per pot, the “Plant Biomass Score (0-9) at Harvest” value amounted to 5.2 and the “Rooting (0-9) + 28 Days” value turned out to be 7.2. In assay [1] (setting [4]), the “No of Large Pod Bearing Branches/Plant + %” value stood at 0% and the “Plant Biomass Score + %” value is 0%. Also, in assay [2] (in vivo), the “Final Seed Yield + %” value is listed as 5% and the “Rooting + %” value is 2%. Further, in assay [2] (soybean), the “No of Large Pod Bearing Branches/Plant at Harvest” value turned out to be 1.0, the “Final Seed Yield at Harvest (g per pot)” value stood at 34.8 g per pot, the “Plant Biomass Score (0-9) at Harvest” value came to 5.2 and the “Rooting (0-9) + 28 Days” value is listed as 4.3. In assay [2] (setting [5]), the “No of Large Pod Bearing Branches/Plant + %” value worked out at 0% and the “Plant Biomass Score + %” value was determined as 0%. In assay [3], the “Total No of Shoots/Plant at GS33” value turned out to be 3.0, the “Total No of “Large” Shoots/Plant at GS33” value amounted to 2.0, the “Rooting (0-9) + 28 Days” value turned out to be 5.4 and the “Final Seed Yield + %” value was determined as 0%. In addition, in assay [3], the “Rooting + %” value is recorded as 0%, the “Total No of Shoots/Plant + %” value came to 0%, the “Total No of “Large” Shoots/Plant + %” value amounted to 0% and the “Final Seed Yield at Harvest (g per pot)” value is recorded as 33.6 g per pot.
Take `CC1(C)CCC(Cc2ccc(Cl)cc2)C1(O)Cn1cncn1` (stereo not drawn) [MET2, Metconazole]: in assay [1] (navy bean), the “No of Large Pod Bearing Branches/Plant at Harvest” value is given as 1.2, the “Final Seed Yield at Harvest (g per pot)” value is 57.4 g per pot, the “Plant Biomass Score (0-9) at Harvest” value is 5.1 and the “Rooting (0-9) + 28 Days” value is recorded as 7.0. For the same compound, in assay [1] (setting [4]), the “Final Seed Yield + %” value was 0%, the “No of Large Pod Bearing Branches/Plant + %” value is 0%, the “Plant Biomass Score + %” value worked out at 0% and the “Rooting + %” value came to 0%. Besides, in assay [2] (soybean), the “No of Large Pod Bearing Branches/Plant at Harvest” value was 1.0, the “Final Seed Yield at Harvest (g per pot)” value turned out to be 36.6 g per pot, the “Plant Biomass Score (0-9) at Harvest” value stood at 6.0 and the “Rooting (0-9) + 28 Days” value came to 5.2. For the same compound, in assay [2] (setting [5]), the “Final Seed Yield + %” value is 0%, the “No of Large Pod Bearing Branches/Plant + %” value is recorded as 0%, the “Plant Biomass Score + %” value came out at 0% and the “Rooting + %” value was 0%. Besides, in assay [3], the “Total No of Shoots/Plant at GS33” value is on record as 3.8, the “Total No of “Large” Shoots/Plant at GS33” value was 2.6, the “Rooting (0-9) + 28 Days” value is on record as 6.0 and the “Final Seed Yield + %” value worked out at 0%. For the same compound, in assay [3], the “Rooting + %” value came to 0%, the “Total No of Shoots/Plant + %” value came to 0%, the “Total No of “Large” Shoots/Plant + %” value came out at 0% and the “Final Seed Yield at Harvest (g per pot)” value is listed as 36.0 g per pot.
As to `CC1(C)CCC(Cc2ccc(Cl)cc2)C1(O)Cn1cncn1` (stereo not drawn) [MET, Metconazole], in assay [1] (navy bean), the “No of Large Pod Bearing Branches/Plant at Harvest” value is given as 1.2, the “Final Seed Yield at Harvest (g per pot)” value is recorded as 57.2 g per pot, the “Plant Biomass Score (0-9) at Harvest” value is 5.2 and the “Rooting (0-9) + 28 Days” value was 7.0. Further, in assay [1] (setting [4]), the “Final Seed Yield + %” value turned out to be 0%, the “No of Large Pod Bearing Branches/Plant + %” value amounted to 0%, the “Plant Biomass Score + %” value was determined as 0% and the “Rooting + %” value worked out at 0%. In assay [2] (soybean), the “No of Large Pod Bearing Branches/Plant at Harvest” value was determined as 1.1, the “Final Seed Yield at Harvest (g per pot)” value was 36.6 g per pot, the “Plant Biomass Score (0-9) at Harvest” value was found to be 6.0 and the “Rooting (0-9) + 28 Days” value is given as 5.2. Moreover, in assay [2] (setting [5]), the “Final Seed Yield + %” value came out at 0%, the “No of Large Pod Bearing Branches/Plant + %” value is 0%, the “Plant Biomass Score + %” value turned out to be 0% and the “Rooting + %” value was 0%. In addition, in assay [3], the “Total No of Shoots/Plant at GS33” value was determined as 3.8, the “Total No of “Large” Shoots/Plant at GS33” value came out at 2.6, the “Rooting (0-9) + 28 Days” value is 6.0 and the “Final Seed Yield + %” value amounted to 0%. For the same compound, in assay [3], the “Rooting + %” value came out at 0%, the “Total No of Shoots/Plant + %” value worked out at 0%, the “Total No of “Large” Shoots/Plant + %” value worked out at 0% and the “Final Seed Yield at Harvest (g per pot)” value stood at 36.2 g per pot.
With `CCOC(=O)C1CC(=O)C(=C(O)C2CC2)C(=O)C1` (stereo not drawn) [MOD, Trinexapac-ethyl], in assay [1] (navy bean), the “No of Large Pod Bearing Branches/Plant at Harvest” value is reported as 1.2, the “Final Seed Yield at Harvest (g per pot)” value came out at 56.1 g per pot, the “Plant Biomass Score (0-9) at Harvest” value was found to be 5.6 and the “Rooting (0-9) + 28 Days” value came out at 7.2. Also, in assay [1] (setting [4]), the “Final Seed Yield + %” value amounted to 0%, the “No of Large Pod Bearing Branches/Plant + %” value is 0%, the “Plant Biomass Score + %” value worked out at 0% and the “Rooting + %” value is 0%. In assay [2] (soybean), the “No of Large Pod Bearing Branches/Plant at Harvest” value is on record as 1.0, the “Final Seed Yield at Harvest (g per pot)” value worked out at 36.2 g per pot, the “Plant Biomass Score (0-9) at Harvest” value is 6.2 and the “Rooting (0-9) + 28 Days” value is on record as 4.4. Besides, in assay [2] (setting [5]), the “Final Seed Yield + %” value turned out to be 0%, the “No of Large Pod Bearing Branches/Plant + %” value is given as 0%, the “Plant Biomass Score + %” value is listed as 0% and the “Rooting + %” value came out at 0%. Further, in assay [3], the “Total No of Shoots/Plant at GS33” value worked out at 3.8, the “Total No of “Large” Shoots/Plant at GS33” value was found to be 2.6, the “Rooting (0-9) + 28 Days” value came to 6.4 and the “Final Seed Yield + %” value stood at 0%. Further, in assay [3], the “Rooting + %” value turned out to be 0%, the “Total No of Shoots/Plant + %” value is given as 0%, the “Total No of “Large” Shoots/Plant + %” value is recorded as 0% and the “Final Seed Yield at Harvest (g per pot)” value turned out to be 35.4 g per pot.
